# From PMC11904948, “Peptide‐Drug Conjugate for Therapeutic Reprogramming of Tumor‐Associated Macrophages in Breast Cancer” (Advanced Science, 2025)
# Legend:
# orthotopic 4T1.2 tumors = experiment: MACTIDE-V + anti-PD-1 combination therapy in orthotopic 4T1.2; assay type: in vivo, Balb/c mice
# Protocol: 4T1.2 bearing mice were treated with 9 doses of CtrlPep‐V, MACTIDE‐V (1 mg Kg^−1 in Verteporfin per dose), or PBS i.p. every other day according to the scheme in (A). Anti‐PD‐1 injections started 16 days post‐tumor induction (three injections of 200 µg each). Mice were sacrificed on day 29, their tumor weights were analyzed (B), pulmonary metastases area quantified from H&E‐stained sections (C), and their tumors were analyzed with flow cytometry (D–H).
# 5×10^5 4T1.2 cells in 50 µL of PBS were injected subcutaneously into 4th mammary fat pad. On day 8, mice were sorted into groups based on tumor volume (≈40 mm^3): PBS, anti‐PD‐1, MACTIDE‐V, MACTIDE‐V+anti‐PD‐1. Mice were treated i.p. every other day with 500 µL of MACTIDE‐V (30 nmol, 1mg kg^−1 Verteporfin) or PBS (10 injections in total). On day 18 post‐injection, MACTIDE‐V+anti‐PD‐1 and anti‐PD‐1 groups received recombiMAb anti‐mouse PD‐1 (Bioxcell, Catalog #CP151), a mouse IgG2a monoclonal antibody with the D265A mutation in the Fc fragment which renders it unable to bind to endogenous Fcγ receptors. Mice received three intraperitoneal injections of 200 µg of anti‐PD‐1 dissolved in 500 µL of PBS. […] Five tumors per group were analyzed by FC as described above. TAM/monocytes were defined as Ly6G^−CD11b^+/F4/80^+ population from the CD45^+ population.
# The lungs of all mice were fixed in formalin and embedded in paraffin, and later sectioned and stained with H&E by the histology facility of Vall D´Hebron Research Institute (Barcelona, Spain). Five 10 µm‐sections spaced apart 1 mm were taken from the lungs of each mouse (n = 7 mice per group). Then, the slides were scanned, and the metastatic area divided by the total lung area was calculated for each mouse.
# orthotopic 4T1 tumors = experiment: In vivo photodynamic therapy study in orthotopic 4T1; design: species or system Balb/c mice
# Protocol: Figure 5 In vitro and in vivo photodynamic therapy with MACTIDE‐V. A) Structure of MACTIDE‐V. B) MACTIDE‐V, CtrlPep‐V, and DOX were incubated with primary human macrophages (obtained from monocytes derived from human blood buffy coat) at 30 µM for 1 h at 37 °C, followed by 2 washes with media. Then, the groups shown in pink were irradiated with 10 J cm^−2 (irradiance: 170 mW cm^−2, spot diameter: 0.5 cm). […] For the irradiated groups, 4 h after administration of conjugates or PBS, the mice were irradiated with 100 J cm^−2; shown is primary tumor volume progression during treatment. Gray arrows indicate injection days. D) Bodyweight during the treatment as % of the initial one. E) Representative mIHC images of PBS, CtrlPep‐V, and MACTIDE‐V‐treated tumors, 20X magnification, scale bar = 100 µm, white triangles point to Foxp3^+ cells. F) CD8^+ T cells, CD4^+ T cells, and Treg density, n = 6 mice/group, with every dot representing the mean cell density of each tumor obtained from 20 images. G) CD8^+ T cells density in CK8^+‐dense tumor regions. n = 5 mice/group, with every dot representing the mean cell density of each tumor obtained from 20 images. Median ± interquartile range. One‐way ANOVA with multiple comparisons, ^* p ≤ 0.05, ^** p ≤ 0.01.
# Prompted by the consistent laser‐induced and preferential toxicity of MACTIDE‐V on IL‐4‐stimulated macrophages, we decided to evaluate its in vivo therapeutic effect on mice survival in the orthotopic 4T1 model. […] This prompted us to further investigate the effect of MACTIDE‐V (‐), which hereafter will be denoted simply as “MACTIDE‐V”. To obtain further information on the effect of MACTIDE‐V in this tumor model, we investigated T cell infiltration in treated tumors, using multiplex immunohistochemistry (mIHC), comparing MACTIDE‐V (‐) group to PBS and CtrlPep‐V (‐) groups.
# Orthotopic tumors were induced by injecting 5×10^4 4T1 cells in 50 µL of PBS subcutaneously into the 4th mammary fat pad of 8–12‐week‐old female Balb/c mice. When tumors reached ≈40 mm^3, mice were sorted into groups: MACTIDE‐V (+), MACTIDE‐V (‐), CtrlPep‐V (+), CtrlPep‐V (‐), MACTIDE (‐), and PBS (+). Tumors were measured using a digital caliper (Mitutoyo) and volume was calculated using (W^2 × L)/2 formula, where W is the width of a tumor and L is the length. Each group had six mice. The first intraperitoneal injection (30 nmol) was carried out on day 9 post‐tumor induction. 4 h post‐injection, the tumor area was shaved to lessen laser scattering and tumors were irradiated with 100 J cm^−2 using the NIR laser source for PDT described above. Each tumor was measured, and the spot size was adjusted every time, keeping the radiation dose always constant. Irradiation of the tumors was done in complete darkness under anesthesia. Mice recovered on a heating pad and eye drops were applied to avoid eye dryness. All mice, whether irradiated or not, were anesthetized to keep the handling conditions the same. Mouse bodyweights and tumor volumes were monitored every other day. The sacrifice of mice began on day 23 based on their tumor sizes (over 1500 mm^3) or cachexia. The final mice were sacrificed on day 36 post‐tumor induction. Tumor volume curves are shown until day 23 when mice elimination began, and the sample number became too small for statistical comparison. Survival was analyzed using GraphPad Prism to plot Kaplan–Meier survival curves and perform the Mantel–Cox test for statistical analysis. Tumors taken on similar days were analyzed using mIHC.
# The staining of 4 µm‐thick formalin‐fixed paraffin‐embedded (FFPE) tissue sections for mIHC analysis was carried out using the tyramide signal amplification‐based Opal method (Akoya Biosciences) on a Leica BOND RX automated immunostainer (Leica Microsystems). For each staining cycle, FFPE slides were deparaffinized and subjected to heat‐induced epitope retrieval at 97 or 100 °C using BOND epitope retrieval solutions ER1 or ER2 (Leica Biosystems).
# [1] = tumor flow cytometry, five tumors per group
# [2] = non-irradiated, versus PBS and CtrlPep‐V (‐), n = 6 mice/group
substance,measurement,setting,value
Vert‐Ahx‐G(CTKSIPPIC)SPGAK‐OH (disulfide) [MACTIDE‐V],primary tumor mass,"orthotopic 4T1.2 tumors; MACTIDE-V 30 nmol i.p. every other day, anti-PD-1 three i.p. injections of 200 µg, sacrifice day 29",significantly reduced the primary tumor mass
same,pulmonary metastases,"orthotopic 4T1.2 tumors; metastatic area from H&E sections, n = 7 mice per group, compared with anti-PD-1",superior effect on reducing pulmonary metastases
same,B cell infiltration,orthotopic 4T1.2 tumors; tumor flow cytometry,no differences in B cell infiltration
same,expression of Granzyme B (GrzB) in CD25^+PD‐1^+ CD8^+ T cells,orthotopic 4T1.2 tumors; tumor flow cytometry,increased
same,expression of PD‐1 on CD8^+ T cells,orthotopic 4T1.2 tumors; tumor flow cytometry,reduced
same,FOXP3^+PD‐1^+ population among CD4^+ T cells,"orthotopic 4T1.2 tumors; tumor flow cytometry, compared to the other experimental conditions",decreasing trend
same,CD206^+MHCII^+ population of TAM/monocytes,orthotopic 4T1.2 tumors; [1],highest increase
same,CD206^+MHCII^− population of TAM/monocytes,orthotopic 4T1.2 tumors; [1],highest decrease
same,CD86^+MHCII^+ population of TAM/monocytes,"orthotopic 4T1.2 tumors; tumor flow cytometry, n = 5",significantly increased
same,CD86^−MHCII^− population of TAM/monocytes,"orthotopic 4T1.2 tumors; tumor flow cytometry, n = 5",decreased
same,"CD4^+ T cells, CD8^+ T cells and NK cells in tumor","orthotopic 4T1.2 tumors; tumor flow cytometry, statistically significant only for NK cells",highest increase
same,mice survival,"orthotopic 4T1 tumors; Kaplan–Meier, Mantel–Cox test",no significant differences
same,"primary tumor volume, non‐irradiated (‐)","orthotopic 4T1 tumors; i.p. 30 nmol (1 mg Kg^−1 in Verteporfin), no laser, n = 6/group, significant respect to PBS",strongest tumor volume reduction
same,"primary tumor growth, irradiated (+)","orthotopic 4T1 tumors; i.p. 30 nmol, irradiated 100 J cm^−2 4 h after administration, n = 6/group, versus control groups, not statistically significant",slowed down the tumor growth
same,"body weight, non‐irradiated (‐)","orthotopic 4T1 tumors; i.p. 30 nmol, no laser, % of initial bodyweight",negligible effect on body weight
same,CD8^+ T cell density in CK8^+‐dense tumor regions (mIHC),"orthotopic 4T1 tumors; non-irradiated, n = 5 mice/group",higher CD8^+ T cell density
same,CD8^+ T cell infiltration in tumors (mIHC),orthotopic 4T1 tumors; [2],significantly higher infiltration of CD8^+ T cells
same,density of regulatory T cells (Tregs) in tumors (mIHC),orthotopic 4T1 tumors; [2],no differences in the density of regulatory T cells
